Reference: PubChem BioAssay AID1259407 (Chemical Carcinogenesis Research Information System (CCRIS), 2018)
The source made the active and inactive calls. The rule behind the calls is not given here.

System: CCRIS mutagenicity, Ames/micronucleus/aberration tests
Assay: CCRIS mutagenicity studies
[1] = Test System: AMES SALMONELLA TYPHIMURIUM, Strain/Indicator: TA100, Metabolic Activation: NONE, Method: PREINCUBATION

CSc1cc(SC)c(N)c(C)c1N
mutagenic call (Test System: AMES SALMONELLA TYPHIMURIUM, Strain/Indicator: TA98, Metabolic Activation: RAT, LIVER, S-9, AROCLOR 1254, Method: STANDARD PLATE): active; positive

O[C@H]1C=Cc2ccc3nc4ccc5ccccc5c4cc3c2[C@@H]1O
mutagenic call (Test System: AMES SALMONELLA TYPHIMURIUM, Strain/Indicator: TA98, Metabolic Activation: GUINEA PIG, LIVER, S-9, 3-METHYLCHOLANTHRENE, Method: STANDARD PLATE): active; positive | mutagenic call (Test System: AMES SALMONELLA TYPHIMURIUM, Strain/Indicator: TA100, Metabolic Activation: GUINEA PIG, LIVER, S-9, 3-METHYLCHOLANTHRENE, Method: STANDARD PLATE): active; positive | mutagenic call (Test System: CHINESE HAMSTER V-79, Strain/Indicator: V-79/6-THIOGUANINE, Metabolic Activation: GUINEA PIG, LIVER, S-9, 3-METHYLCHOLANTHRENE): active; positive

CCC/C=C/C=O
mutagenic call (Test System: AMES SALMONELLA TYPHIMURIUM, Strain/Indicator: TA97A, Metabolic Activation: NONE, Method: DESICCATOR): inactive; negative | mutagenic call (Test System: AMES SALMONELLA TYPHIMURIUM, Strain/Indicator: TA97A, Metabolic Activation: S-9, Method: DESICCATOR): inactive; negative | mutagenic call (Test System: AMES SALMONELLA TYPHIMURIUM, Strain/Indicator: TA98, Metabolic Activation: NONE, Method: DESICCATOR): inactive; negative | mutagenic call (Test System: AMES SALMONELLA TYPHIMURIUM, Strain/Indicator: TA100, Metabolic Activation: NONE, Method: DESICCATOR): inactive; negative | mutagenic call [1]: inactive; negative | mutagenic call (Test System: AMES SALMONELLA TYPHIMURIUM, Strain/Indicator: TA100, Metabolic Activation: NONE, Method: PREINCUBATION (THREEFOLD CELL DENSITY)): active; positive | mutagenic call (Test System: AMES SALMONELLA TYPHIMURIUM, Strain/Indicator: TA100, Metabolic Activation: RAT, LIVER, S-9, AROCLOR 1254, Method: PREINCUBATION): inactive; negative | mutagenic call (Test System: AMES SALMONELLA TYPHIMURIUM, Strain/Indicator: TA100, Metabolic Activation: RAT, LIVER, S-9, AROCLOR 1254, Method: PREINCUBATION (THREEFOLD CELL DENSITY)): active; positive | mutagenic call (Test System: AMES SALMONELLA TYPHIMURIUM, Strain/Indicator: TA100, Metabolic Activation: S-9, Method: DESICCATOR): inactive; negative | mutagenic call (Test System: AMES SALMONELLA TYPHIMURIUM, Strain/Indicator: TA102, Metabolic Activation: S-9, Method: DESICCATOR): inactive; negative | mutagenic call (Test System: AMES SALMONELLA TYPHIMURIUM, Strain/Indicator: TA104, Metabolic Activation: NONE, Method: DESICCATOR): inactive; negative | mutagenic call (Test System: AMES SALMONELLA TYPHIMURIUM, Strain/Indicator: TA104, Metabolic Activation: NONE, Method: PREINCUBATION): active; positive | mutagenic call (Test System: AMES SALMONELLA TYPHIMURIUM, Strain/Indicator: TA104, Metabolic Activation: S-9, Method: DESICCATOR): inactive; negative | mutagenic call (Test System: CHINESE HAMSTER V-79, Strain/Indicator: V-79/6-THIOGUANINE, Metabolic Activation: NONE, Method: STANDARD PLATE): active; positive | mutagenic call (Test System: CHINESE HAMSTER V-79, Strain/Indicator: V-79/OUABAIN, Metabolic Activation: NONE, Method: STANDARD PLATE): inactive; negative

OCC(CO)(CBr)CBr
mutagenic call (End Point: IN VITRO CHROMOSOMAL ABERRATIONS, Test System: CHINESE HAMSTER OVARY CELLS, Metabolic Activation: NONE): inactive; negative | mutagenic call (End Point: IN VITRO CHROMOSOMAL ABERRATIONS, Test System: CHINESE HAMSTER OVARY CELLS, Metabolic Activation: RAT, LIVER, S-9, AROCLOR 1254): active; positive | mutagenic call (Test System: AMES SALMONELLA TYPHIMURIUM, Strain/Indicator: TA98, Metabolic Activation: HAMSTER, LIVER, S-9, AROCLOR 1254 (10%), Method: PREINCUBATION): inactive; negative | mutagenic call (Test System: AMES SALMONELLA TYPHIMURIUM, Strain/Indicator: TA98, Metabolic Activation: HAMSTER, LIVER, S-9, AROCLOR 1254 (30%), Method: PREINCUBATION): inactive; negative | mutagenic call (Test System: AMES SALMONELLA TYPHIMURIUM, Strain/Indicator: TA98, Metabolic Activation: NONE, Method: PREINCUBATION): inactive; negative | mutagenic call (Test System: AMES SALMONELLA TYPHIMURIUM, Strain/Indicator: TA98, Metabolic Activation: RAT, LIVER, S-9, AROCLOR 1254 (10%), Method: PREINCUBATION): inactive; negative | mutagenic call (Test System: AMES SALMONELLA TYPHIMURIUM, Strain/Indicator: TA98, Metabolic Activation: RAT, LIVER, S-9, AROCLOR 1254 (30%), Method: PREINCUBATION): inactive; negative | mutagenic call (Test System: AMES SALMONELLA TYPHIMURIUM, Strain/Indicator: TA100, Metabolic Activation: HAMSTER, LIVER, S-9, AROCLOR 1254 (10%), Method: PREINCUBATION): inactive; negative | mutagenic call (Test System: AMES SALMONELLA TYPHIMURIUM, Strain/Indicator: TA100, Metabolic Activation: HAMSTER, LIVER, S-9, AROCLOR 1254 (30%), Method: PREINCUBATION): active; positive | mutagenic call [1]: inactive; negative | mutagenic call (Test System: AMES SALMONELLA TYPHIMURIUM, Strain/Indicator: TA100, Metabolic Activation: RAT, LIVER, S-9, AROCLOR 1254 (10%), Method: PREINCUBATION): inactive; negative | mutagenic call (Test System: AMES SALMONELLA TYPHIMURIUM, Strain/Indicator: TA100, Metabolic Activation: RAT, LIVER, S-9, AROCLOR 1254 (30%), Method: PREINCUBATION): inactive; negative | mutagenic call (Test System: AMES SALMONELLA TYPHIMURIUM, Strain/Indicator: TA1535, Metabolic Activation: HAMSTER, LIVER, S-9, AROCLOR 1254 (10%), Method: PREINCUBATION): inactive; negative | mutagenic call (Test System: AMES SALMONELLA TYPHIMURIUM, Strain/Indicator: TA1535, Metabolic Activation: NONE, Method: PREINCUBATION): inactive; negative | mutagenic call (Test System: AMES SALMONELLA TYPHIMURIUM, Strain/Indicator: TA1535, Metabolic Activation: RAT, LIVER, S-9, AROCLOR 1254 (10%), Method: PREINCUBATION): inactive; negative | mutagenic call (Test System: AMES SALMONELLA TYPHIMURIUM, Strain/Indicator: TA1537, Metabolic Activation: HAMSTER, LIVER, S-9, AROCLOR 1254 (10%), Method: PREINCUBATION): inactive; negative | mutagenic call (Test System: AMES SALMONELLA TYPHIMURIUM, Strain/Indicator: TA1537, Metabolic Activation: NONE, Method: PREINCUBATION): inactive; negative | mutagenic call (Test System: AMES SALMONELLA TYPHIMURIUM, Strain/Indicator: TA1537, Metabolic Activation: RAT, LIVER, S-9, AROCLOR 1254 (10%), Method: PREINCUBATION): inactive; negative

CCC(CC)[N+](=O)[O-]
mutagenic call [1]: inactive; negative | mutagenic call (Test System: AMES SALMONELLA TYPHIMURIUM, Strain/Indicator: TA100, Metabolic Activation: RAT, LIVER, S-9, AROCLOR, Method: PREINCUBATION): inactive; negative | mutagenic call (Test System: AMES SALMONELLA TYPHIMURIUM, Strain/Indicator: TA102, Metabolic Activation: NONE, Method: PREINCUBATION): inactive; negative | mutagenic call (Test System: AMES SALMONELLA TYPHIMURIUM, Strain/Indicator: TA102, Metabolic Activation: RAT, LIVER, S-9, AROCLOR, Method: PREINCUBATION): inactive; negative | mutagenic call (Test System: UDS RAT HEPATOCYTES, Strain/Indicator: THY INCORP, Metabolic Activation: NONE): active; positive

O=[N+]([O-])c1ccc2c(c1)CC=C2
mutagenic call (Test System: AMES SALMONELLA TYPHIMURIUM, Strain/Indicator: TA98, Metabolic Activation: NONE, Method: STANDARD PLATE): active; positive

O=c1cccc2cc(O)c(O)c(O)c2c1O
mutagenic call (Test System: AMES SALMONELLA TYPHIMURIUM, Strain/Indicator: TA2638, Metabolic Activation: S-9, Method: STANDARD PLATE): inactive; negative

COC(=O)c1cc(Oc2ccc(Cl)cc2Cl)ccc1[N+](=O)[O-]
mutagenic call (Test System: AMES SALMONELLA TYPHIMURIUM, Strain/Indicator: YG1021, Metabolic Activation: NONE, Method: PREINCUBATION): inactive; negative | mutagenic call (Test System: AMES SALMONELLA TYPHIMURIUM, Strain/Indicator: YG1021, Metabolic Activation: RAT, LIVER, S-9, PCB, Method: PREINCUBATION): inactive; negative | mutagenic call (Test System: AMES SALMONELLA TYPHIMURIUM, Strain/Indicator: YG1026, Metabolic Activation: NONE, Method: PREINCUBATION): inactive; negative | mutagenic call (Test System: AMES SALMONELLA TYPHIMURIUM, Strain/Indicator: YG1026, Metabolic Activation: RAT, LIVER, S-9, PCB, Method: PREINCUBATION): active; positive
